# Reference: PMC10883374 (Science Advances, 2022)
# Positions count from the first letter of the chain named. Entries after “also recorded” stand apart in the source; their conditions may differ.
# Assays:
# Type in all cases: biochemical
# [1] = target: T1, hSAMTOR (WT) interaction with GATOR1-KICSTOR (Homo sapiens, UniProt Q1RMZ1); conditions: WT full-length hSAMTOR, HEK 293T cell lysates, 0.5 mM SAM
# T1 sequence (Q1RMZ1 1-405): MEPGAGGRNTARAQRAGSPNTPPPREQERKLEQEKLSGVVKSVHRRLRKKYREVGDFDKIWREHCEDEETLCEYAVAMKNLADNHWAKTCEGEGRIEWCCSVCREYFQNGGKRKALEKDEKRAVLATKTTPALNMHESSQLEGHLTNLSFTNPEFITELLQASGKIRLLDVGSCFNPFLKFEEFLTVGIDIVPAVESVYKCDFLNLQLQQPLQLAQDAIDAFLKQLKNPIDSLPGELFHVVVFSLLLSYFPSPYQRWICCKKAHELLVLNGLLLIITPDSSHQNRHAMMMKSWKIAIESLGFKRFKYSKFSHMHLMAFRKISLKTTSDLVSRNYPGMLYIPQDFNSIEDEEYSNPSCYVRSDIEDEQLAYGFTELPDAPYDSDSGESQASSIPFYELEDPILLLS
# [2] = target: T2, D190A hSAMTOR interaction with GATOR1-KICSTOR (Homo sapiens, UniProt Q1RMZ1, D190A); assay: Co-IP of Flag-hSAMTOR-D190A with HA-Nprl3 and Myc-Kaptin with or without SAM; conditions: HEK 293T cell lysates, 0.5 mM SAM
# T2 sequence (Q1RMZ1 1-405 D190A): T1 sequence (Q1RMZ1 1-405) with D190A
# [3] = target: T3, hSAMTOR MTase domain (residues 91 to 405) interaction with GATOR1-KICSTOR (Homo sapiens, UniProt Q1RMZ1); assay: Co-IP of hSAMTOR C-terminal MTase domain; conditions: hSAMTOR CTD alone, HEK 293T cell lysates, 0.5 mM SAM
# T3 sequence (Q1RMZ1 91-405): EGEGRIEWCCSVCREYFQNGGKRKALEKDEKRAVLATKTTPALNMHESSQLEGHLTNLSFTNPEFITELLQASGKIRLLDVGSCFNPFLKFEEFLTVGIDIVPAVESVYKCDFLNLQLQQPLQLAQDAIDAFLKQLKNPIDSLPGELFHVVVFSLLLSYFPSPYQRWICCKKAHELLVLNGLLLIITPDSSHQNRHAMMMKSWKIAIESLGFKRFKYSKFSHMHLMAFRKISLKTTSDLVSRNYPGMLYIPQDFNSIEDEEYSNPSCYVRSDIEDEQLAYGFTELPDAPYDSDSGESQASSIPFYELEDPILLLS
# T3 sequence (Q12980 1-569 partner): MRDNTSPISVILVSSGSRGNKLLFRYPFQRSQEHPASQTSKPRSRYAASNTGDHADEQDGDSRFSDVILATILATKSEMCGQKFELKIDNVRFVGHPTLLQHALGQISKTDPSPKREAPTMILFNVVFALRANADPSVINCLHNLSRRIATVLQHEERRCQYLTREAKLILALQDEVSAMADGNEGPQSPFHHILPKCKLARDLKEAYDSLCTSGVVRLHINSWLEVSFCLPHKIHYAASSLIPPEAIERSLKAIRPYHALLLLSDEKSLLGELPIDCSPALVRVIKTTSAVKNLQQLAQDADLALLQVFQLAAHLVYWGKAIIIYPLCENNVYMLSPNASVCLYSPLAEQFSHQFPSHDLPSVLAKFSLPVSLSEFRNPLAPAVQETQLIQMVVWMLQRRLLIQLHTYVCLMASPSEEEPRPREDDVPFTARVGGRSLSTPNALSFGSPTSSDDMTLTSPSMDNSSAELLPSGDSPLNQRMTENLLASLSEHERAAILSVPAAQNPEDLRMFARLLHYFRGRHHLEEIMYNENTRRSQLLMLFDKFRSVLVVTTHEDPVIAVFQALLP
# T3 sequence (Q9Y664 1-436 partner): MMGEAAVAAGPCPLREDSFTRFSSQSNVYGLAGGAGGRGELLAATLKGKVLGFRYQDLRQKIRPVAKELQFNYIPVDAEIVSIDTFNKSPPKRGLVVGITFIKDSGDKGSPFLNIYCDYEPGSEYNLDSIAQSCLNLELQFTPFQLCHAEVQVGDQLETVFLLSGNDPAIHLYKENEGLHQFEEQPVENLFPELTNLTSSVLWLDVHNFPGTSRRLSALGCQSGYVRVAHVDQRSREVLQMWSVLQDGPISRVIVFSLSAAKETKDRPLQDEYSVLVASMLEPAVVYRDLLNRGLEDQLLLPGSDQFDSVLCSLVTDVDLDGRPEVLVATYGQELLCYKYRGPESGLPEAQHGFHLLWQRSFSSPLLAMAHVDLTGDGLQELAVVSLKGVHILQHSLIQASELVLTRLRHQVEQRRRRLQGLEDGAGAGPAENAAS
smiles,measurement,setting,value
"C[S+](CC[C@H](N)C(=O)[O-])C[C@H]1O[C@@H](n2cnc3c(N)ncnc32)[C@H](O)[C@@H]1O (stereo partly drawn) [SAM, S-adenosylmethionine]",effect of SAM on interaction of hSAMTOR with GATOR1-KICSTOR (co-IP),[1],essentially disrupts its interactions with GATOR1-KICSTOR; also recorded: substantially weakens the interaction
same,effect of SAM on interaction of hSAMTOR with GATOR1-KICSTOR (co-IP),[2],comparable interactions with GATOR1 and KICSTOR in both the absence and presence of SAM
same,effect of SAM on interaction of the MTase domain with GATOR1-KICSTOR (co-IP),[3],no apparent effect
